According to US9611276B2, “Imidazo bicyclic iminium compounds as antitumor agents” (THE BOARD OF TRUSTEES OF THE LELAND STANFORD JUNIOR …, priority 2012, dated 2017):
pIC50: −log10 of the molar value.

Tests used:
Assay type in all cases: cell-based
[1] = tested on: endogenous Hh target gene expression (Gli1 mRNA); test: Gli1 mRNA levels in NIH-3T3 cells with ShhN
Method: (§1) NIH-3T3 cells were obtained from ATCC and cultured in DMEM (Invitrogen, 11965) containing 10% (v/v) calf serum (ATCC, 30-2030), 1 mM sodium pyruvate (Invitrogen, 11360) and 1× PenStrep (Gibco, 15140).
(§2) All test compounds were dissolved in DMSO at 50 mM, serially diluted by 1:3, 1:4 or 1:5 in a 96-well translucent microplate (Greiner bio-one, 650201) and stored at −20° C. These serial dilutions were added to assay media freshly with final DMSO concentration of 0.2% (v/v).
Quantification of Gli1 mRNA levels in NIH-3T3 cells provides a measure of endogenous Hh target gene expression. NIH 3T3 cells were seeded into 96-well plates (36,000 cells/well), cultured to confluency for 24 hrs and then incubated with test compounds in DMEM (Invitrogen, 11965) containing 0.5% (v/v) calf serum (ATCC, 30-2030), 1 mM sodium pyruvate (Invitrogen, 11360), 1× PenStrep (Gibco, 15140) and 10% (v/v) ShhN-conditioned medium for 24 hrs. The cells were lysed and the lysate was used to prepare cDNA using a Cells-to-CT kit (Ambion) according to the manufacturer's protocols. The cDNA was then quantified with Gli1 and GAPDH Taqman probes (Mm00494645m1 and Mm99999914g1, Applied Biosystems) on a Roche Lightcycler 480, using the 2nd derivative/maximum method to obtain Ct values. Biological triplicates were analyzed for each test compounds.

Gli2 = Gli2 (Homo sapiens, UniProt P10070); test: Overexpression of Gli2 in NIH-3T3 cells, firefly luciferase reporter; design: expressed in transfected cells; host or cells: NIH-3T3 (mouse fibroblasts)
Gli2, sequence (P10070 whole entry, species assumed): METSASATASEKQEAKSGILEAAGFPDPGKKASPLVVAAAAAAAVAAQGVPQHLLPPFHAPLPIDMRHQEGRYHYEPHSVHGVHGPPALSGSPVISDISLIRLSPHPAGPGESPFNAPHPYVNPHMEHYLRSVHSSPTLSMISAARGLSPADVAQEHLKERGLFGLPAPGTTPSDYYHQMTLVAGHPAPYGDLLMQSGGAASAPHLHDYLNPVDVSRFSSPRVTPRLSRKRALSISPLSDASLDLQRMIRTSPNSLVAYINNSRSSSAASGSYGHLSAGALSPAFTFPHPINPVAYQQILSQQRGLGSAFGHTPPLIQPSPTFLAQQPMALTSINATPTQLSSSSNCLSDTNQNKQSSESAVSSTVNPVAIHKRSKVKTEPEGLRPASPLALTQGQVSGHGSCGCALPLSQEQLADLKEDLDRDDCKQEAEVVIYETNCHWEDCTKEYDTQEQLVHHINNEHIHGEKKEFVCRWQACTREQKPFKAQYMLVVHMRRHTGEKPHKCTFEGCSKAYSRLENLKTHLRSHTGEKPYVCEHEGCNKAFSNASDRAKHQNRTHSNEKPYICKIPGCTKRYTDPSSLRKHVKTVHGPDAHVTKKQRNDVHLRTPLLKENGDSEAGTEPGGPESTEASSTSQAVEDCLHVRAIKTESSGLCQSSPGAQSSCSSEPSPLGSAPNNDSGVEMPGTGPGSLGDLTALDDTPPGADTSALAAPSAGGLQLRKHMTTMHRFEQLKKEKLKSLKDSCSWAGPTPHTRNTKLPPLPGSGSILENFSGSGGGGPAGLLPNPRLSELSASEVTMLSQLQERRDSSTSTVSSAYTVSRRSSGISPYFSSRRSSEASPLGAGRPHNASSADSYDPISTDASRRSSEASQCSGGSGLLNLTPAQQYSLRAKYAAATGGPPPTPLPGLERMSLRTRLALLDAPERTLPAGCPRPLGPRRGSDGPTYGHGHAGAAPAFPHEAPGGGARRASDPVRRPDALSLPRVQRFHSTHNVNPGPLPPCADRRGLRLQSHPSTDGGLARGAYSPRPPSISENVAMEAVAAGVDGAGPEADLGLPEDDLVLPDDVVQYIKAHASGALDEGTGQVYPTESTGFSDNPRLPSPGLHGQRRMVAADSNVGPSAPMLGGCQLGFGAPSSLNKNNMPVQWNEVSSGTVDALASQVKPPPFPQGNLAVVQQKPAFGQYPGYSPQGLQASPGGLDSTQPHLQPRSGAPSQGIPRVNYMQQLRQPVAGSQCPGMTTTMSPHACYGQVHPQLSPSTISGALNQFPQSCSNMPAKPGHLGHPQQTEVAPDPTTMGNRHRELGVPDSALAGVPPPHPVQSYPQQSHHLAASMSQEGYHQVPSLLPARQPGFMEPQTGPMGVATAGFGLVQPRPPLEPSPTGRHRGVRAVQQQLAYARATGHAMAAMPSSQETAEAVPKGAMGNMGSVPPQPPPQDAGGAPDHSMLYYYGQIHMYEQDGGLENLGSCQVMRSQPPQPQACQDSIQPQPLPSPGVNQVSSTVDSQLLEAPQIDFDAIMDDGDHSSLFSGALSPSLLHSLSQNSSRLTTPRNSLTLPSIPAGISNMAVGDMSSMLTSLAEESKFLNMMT
Method: as §1, §2
Overexpression of Gli1 or Gli2 in NIH-3T3 cells provides a measure of Gli1- or Gli1/Gli2-induced pathway activity, respectively. NIH 3T3 cells were seeded into a 24-well plate (35,000 cells/well) and cultured for 30 hrs. […] The cells were lysed with passive lysis buffer (200 μL/well), and 10 μL of the obtained lysate were analyzed for firefly and Renilla luciferase activities using Dual-Luciferase Reporter Assay System (Promega, E1960) (50 μL/well of each reagent) on a microplate luminometer (Veritas). Biological triplicates were analyzed for each test compounds.

Hh pathway activity = test: Shh-LIGHT2 cell assay with ShhN-conditioned medium
Method: Shh-LIGHT2 cells [see Taipale et al. Nature. 2000; 406(6799):1005-9], an NIH-3T3-based cell line containing a stably integrated Gli-responsive firefly luciferase reporter (8XGliBS-FL) and constitutive Renilla luciferase reporter (pRLTK, Promega), were cultured in DMEM (Invitrogen, 11965) containing 10% (v/v) calf serum [the American Type Culture Collection (ATCC), 30-2030], 150 μg/mL zeocin (Invitrogen, R250-01), 400 μg/mL G418 (Invitrogen, 11811), 1 mM sodium pyruvate (Invitrogen, 11360) and 1× PenStrep.
as §2
The Shh-LIGHT2 cell assay provides a measure of Hh pathway activity. ShhN-conditioned medium was prepared by culturing a Shh-N-producing HEK 293 cell line [see Chen et al. Proc Natl Acad Sci USA. […] The cells were lysed with passive lysis buffer (50 μL/well), and 10 μL of the obtained lysate were analyzed for firefly and Renilla luciferase activities using Dual-Luciferase Reporter Assay System (Promega, E1960) (50 μL/well of each reagent) on a microplate luminometer (Veritas). Biological triplicates were analyzed for each test compounds.

CCOc1ccc(-[n+]2cc(-c3ccc(Br)cc3)n3c2CCCCC3)cc1 [Compound A-1]
ShhN-dependent expression of endogenous target genes (Gli1) [1]: inhibited | pIC50 ([1]; Mus musculus, NIH3T3, NIH-3T3 w/ ShhN): 5.30 | Hh reporter expression induced by exogenous Gli2 (Gli2): only partially inhibited | Inhibition of Hh pathway activity (Hh pathway activity; Shh-LIGHT2 cells stimulated with ShhN): inhibits Hh pathway activity | pIC50 (Hh pathway activity; Shh-LIGHT2 w/ ShhN, read-out: IC50, firefly luciferase): 5.18
